# Patent publication US6716428B1, “Antigenic modification of polypeptides” (The Ohio State University Research Foundation, priority 1999, dated 2004)
# Read-outs that look alike come from different tables or passages of the source. Square brackets hold non-standard residues; d marks the D form. Ends that are not written are not given here. Nle = CCCC[C@H](N)C(=O)O
# Experiments:
# [1] = system: rabbit polyclonal antiserum to the 38-57 loop peptide; assay: Competition radioimmunoassay with rabbit polyclonal antiserum to the 38-57 loop peptide; assay type: binding
# Protocol: In the preceding examples, the studied available smallest peptide highly reactive to H-18 MAB was the 40-52 residue peptide and therefore, it was contemplated that the entire epitope resided within this sequence. By the procedures described in earlier examples for other peptides, peptides representing 50-52, 49-52, 48-52, 47-52, 46-52, 45-52, 44-52, 43-52, 42-52, and 41-52 were prepared and tested for reactivity with H-18 MAB and a rabbit polyclonal antiserum to the 38-57 loop peptide.
# By earlier described procedures for other peptide preparations, peptides 43-45, 43-46, 43-48, 43-49, 43-50, and 43-51 were prepared to define the C-terminal boundary of the H-18 MAB epitope and to determine whether polyclonal antisera to the 38-57 loop reacted to sequences beyond the H-18 boundary. […] This latter immunogenicity could involve N-terminal residues 41 and 42 and the C-terminal residue 51.
# Peptides with amino acid substitutions in the 43-50 sequence were unreactive.
# pituitary HLH = assay: Antibodies bound to pituitary HLH raised by conjugated 38-57 loop analogs and reference conjugates (Example XLIV); assay type: in vivo, human; details: mean peak binding of the antisera
# Protocol: (§1) In an effort to obtain improved results over the analogs described in my earlier Example XLIII, further synthetic analogs of the unsubstituted 38-57 amino acid sequence of βHCG were prepared and evaluated in a similar manner as set forth in the prior examples. These analogs were provided with a disulfide bridge linking their 38 Cys and 57 Cys to form a loop and included the amino acid residue Ala (Pro)6 on the N-terminus as described earlier herein.
# (§2) Table 33 illustrates nine analogs of the 38-57 loop peptide of βHCG with a varying number of amino acid substitutions in the positions outside the conceived 43-50 epitope sequence.
# (§3) The antibodies values are expressed herein are as namomoles bound/L unless otherwise stated.
# HCG = assay: Antibodies bound to HCG raised by conjugated 38-57 loop analogs and reference conjugates (Example XLIV); assay type: in vivo, human; details: for antibodies bound to HCG: mean peak binding of the antisera
# Protocol: as §1, §2, §3
# progesterone = details: female baboons
# female baboons [2] = system: female baboons
# female baboons [3] = assay: Fertility rates (matings and pregnancies) of immunized female baboons; assay type: in vivo, baboon; details: for Fertility Rate (%) / No. Pregnant: female baboons
# [4] = post-immunization menstrual cycle 1
# [5] = post-immunization menstrual cycle 2
# [6] = post-immunization menstrual cycle 3
# [7] = post-immunization menstrual cycle 4
# [8] = post-immunization menstrual cycle 5
# [9] = pre-immunization menstrual cycle −1
# [10] = pre-immunization menstrual cycle −2
# [11] = pre-immunization menstrual cycle −3
substance,measurement,setting,value
CPTMTRVLQGVLPALPQVVC (cysteine pairing not given here) [Structure (XXVII)],antibodies against the peptide not directed to the 43-50 region,[1],about 5%
CPT[Nle]DRVLQGVLPAVPQVVC (cysteine pairing not given here) [analog number 2],antibodies bound to pituitary HLH,pituitary HLH,13 nanomoles bound/L
same,"HCG antibodies bound, of those using the conjugated unsubstituted 38-57 loop sequence",HCG; in vivo,about 75%
same,antibodies bound to HCG,HCG,420 nanomoles bound/L
"conjugate including the βHCG 109-145 amino acid sequence: conjugate of the βHCG 109-145 sequence tested in Example XLIV (TCDDPRFQDSSSSKAPPPSLPSPSRLPGPSDTPILPQ; also: conjugated to carrier; UniProt P0DN86 129-165, looked up, fragment)",antibodies bound to pituitary HLH,pituitary HLH,0 nanomoles bound/L
same,antibodies bound to HCG,HCG,1240 nanomoles bound/L
diphtheria toxoid,"Luteal phase Progesterone (ng/ml), Mean",progesterone; [4],4.3 ng/mL
same,"Luteal phase Progesterone (ng/ml), Mean",progesterone; [5],6.0 ng/mL
same,"Luteal phase Progesterone (ng/ml), Mean",progesterone; [6],7.0 ng/mL
same,"Luteal phase Progesterone (ng/ml), Mean",progesterone; [7],5.9 ng/mL
same,"Luteal phase Progesterone (ng/ml), Mean",progesterone; [8],6.0 ng/mL
same,"Luteal phase Progesterone (ng/ml), Mean",progesterone; [9],6.0 ng/mL
same,"Luteal phase Progesterone (ng/ml), Mean",progesterone; [10],6.8 ng/mL
same,"Luteal phase Progesterone (ng/ml), Mean",progesterone; [11],6.9 ng/mL
same,"Cycle Length (days), Mean",female baboons [2]; [4],32.7 days
same,"Cycle Length (days), Mean",female baboons [2]; [5],33.1 days
same,"Cycle Length (days), Mean",female baboons [2]; [6],34.0 days
same,"Cycle Length (days), Mean",female baboons [2]; [7],30.0 days
same,"Cycle Length (days), Mean",female baboons [2]; [8],31.0 days
same,"Cycle Length (days), Mean",female baboons [2]; [9],33.2 days
same,"Cycle Length (days), Mean",female baboons [2]; [10],33.5 days
same,"Cycle Length (days), Mean",female baboons [2]; [11],34.4 days
same,Fertility Rate,"female baboons [3]; Example XXXV, all matings of three mating cycles, CGP 11637, Squalene/Arlacel A",70%
same,Fertility Rate (%),female baboons [3]; mating cycle 1,73.3%
same,No. Pregnant,female baboons [3]; mating cycle 1,11
same,Fertility Rate (%),female baboons [3]; mating cycle 2,75.0%
same,No. Pregnant,female baboons [3]; mating cycle 2,3
same,Fertility Rate (%),female baboons [3]; mating cycle 3,0%
same,No. Pregnant,female baboons [3]; mating cycle 3,0
same,Fertility Rate (%),female baboons [3]; totals of mating cycles 1-3,70.0%
same,No. Pregnant,female baboons [3]; totals of mating cycles 1-3,14
same,pregnancies in total,female baboons [3]; in vivo,14
